From patent US20120244079A1, “TRACEABLE RETINOID ACID FOR IMAGING, DISEASE PREVENTION AND THERAPY” (BAYLOR COLLEGE OF MEDICINE, priority 2009, published 2012)
“Also recorded” adds a separate entry of the source.

Key:
[1] = system: F4 osteosarcoma tumor xenograft; experiment: In vivo NIR imaging, side-by-side with free dye; parameters: species or system athymic nude mice; details: for clearance from the body, time: following the injection
Description: (§1) Four- to six-week-old male athymic nude mice (18-22 g) were housed and fed sterilized pellet chow and provided sterilized water. Animals were maintained in a pathogen-free mouse colony. The facility is accredited by the American Association for Laboratory Animal Care, and all experiments were performed in accordance with the guidelines of the Institutional Animal Care and Use Committee. Tumor cells were harvested near confluence by incubating them with 0.05% trypsin-EDTA. Cells were pelleted by centrifugation at 130×g for five minutes and resuspended in sterile phosphate-buffered saline (PBS). Tumors were induced in animals by subcutaneous injection of approximately one million tumor cells into the hind leg region of the mice. A total of 75 mice were used in this study.
(§2) The NIR-labeled retinoid agent was intraveneously (i.v.) injected into the tumor-bearing mice at a dose of 10 nmol for imaging. The animals were imaged from 1 to 9 days after the injection using an In-Vivo Multispectral System FX, a tandem (SPECT/CT) single photon emission computed tomography (SPECT) and computed tomography (CT) system and imaged with a positron emission tomography (PET) system.
Regions of interest were quantified from the in vitro and in vivo data using ImageJ (National Institutes of Health, USA). Data were analyzed using one-way (analysis of variance) ANOVA or general linear model (GLM). Data comparisons were illustrated in notched box-and-whisker plots. These plots provide the minimum, 25th percentile, median (central line), mean (+), 75th percentile and maximum.
The tumor mass was located in the left hind region of the mouse (FIG. 2A). There was no calcification of the tumor mass (FIG. 2B). […] To eliminate the potential well-established enhanced permeability and retention (EPR) effect of the imaging results, a side-by-side imaging comparison was performed to study and to directly compare the free dye (FIG. 2E to FIG. 2I) and compound 3 (FIG. 2J to FIG. 2M). The same intensity scale was used in this analysis. […] Finally, the merged free dye, RGD and CT images show the only high vasculature signal in the vicinity of the tumor (FIG. 2I). In contrast, the merged compound 3, RGD and CT images show both vasculature and RA (compound 3) signal intensity increases in the tumor region (FIG. 2N, yellow). All of the data were further analyzed at the animal population level.

[2] = system: human osteosarcoma F5M2 cells; experiment: Confocal microscopy cell binding/uptake; format: cell-based; details: 100 μm, 60 minutes at 37° C.
Description: (§3) The human colon (HT-29), nasal (CCL-30) and lung (A549) cancer cell lines were purchased from the American Type Culture Collection (ATCC, Manassas, Va.). Human osteosarcoma (F5M2, OS-9901, SOSP-S607, F4, CM319) and nasopharyngeal carcinoma cell lines (CNE-2) were generated in-house. The cells were cultured in Dulbecco's Modified Eagle Medium supplemented with high glucose and F12 nutrient (DMEM/F12, Invitrogen, Carlsbad, Calif.) with 10% fetal bovine serum (Hyclone, Logan, Utah) in a humidified incubator maintained at 37° C. with 5% CO2.
(§4) Cells were harvested, and the NIR-labeled retinoid agent or the free dye (100 μm) was added. The mixture was incubated for 60 minutes at 37° C. Cells were washed in PBS. Sytox Green in 95% ethanol was added, and cells were incubated for 15 minutes at 4° C. to fix them and stain their nuclei. Stained cells were then transferred to a slide and mounted for microscopic examination. Images were recorded by an Olympus confocal microscope. The microscope was equipped with an excitation (Ex) light source and emission (Em) filters to detect and separate the labeled retinoids (ex/em 785/810 nm) and cell nuclei (Ex/Em 488/510 nm) signals. Confocal image signals were recorded from one slice of a cell z-stack. Sytox green and NIR-labeled retinoid or NIR dye signals were pseudo-colored green (emission at 510 nm) and red (emission at 810 nm), respectively.
(§5) The uptake of NIR-labeled retinoid agent by human cancer cells was verified by confocal microscopy (FIG. 1A to 1H). […] The nuclear internalization was temperature-dependent (FIG. 1J and FIG. 1K). The signal intensity was stronger in cells incubated at 37° C. (FIG. 1I) than in those incubated at 4° C. (FIG. 1L) or the negative cells incubated at 37° C. (FIG. 1M, FIG. 1N, and FIG. 1O). These differences are statistically significant (FIG. 1P).

[3] = system: human nasopharyngeal cancer (CNE-2) cells; experiment: Confocal microscopy cell binding/uptake; format: cell-based; details: 100 μm, 60 minutes at 37° C.
Description: as §3, §4, §5

[4] = system: human osteosarcoma OS-9901 cells; experiment: Confocal microscopy cell binding/uptake; format: cell-based; details: 100 μm, 60 minutes at 37° C.
Description: as §3, §4, §5

[5] = system: human osteosarcoma SOSP-9607 cells; experiment: Confocal microscopy cell binding/uptake; format: cell-based; details: 100 μm, 60 minutes at 37° C.
Description: as §3, §4, §5

[6] = system: human lung cancer (A549) cells; experiment: Confocal microscopy cell binding/uptake; format: cell-based; details: 100 μm, 60 minutes at 37° C.
Description: as §3, §4, §5

[7] = system: human colon cancer (HT-29) cells; experiment: Confocal microscopy cell binding/uptake; format: cell-based; details: 100 μm, 60 minutes at 37° C.
Description: as §3, §4, §5

[8] = system: human osteosarcoma F4 cells; experiment: Confocal microscopy cell binding/uptake; format: cell-based; details: 100 μm, 60 minutes at 37° C.
Description: as §3, §4, §5

[9] = system: human cancer cells; experiment: Confocal microscopy: effect of temperature and signal localisation; format: cell-based
Description: as §4, §5
The negative cells also show the minimum signal intensity (FIG. 1M and FIG. 1N).

[10] = system: tumor xenograft; experiment: Dose acceleration response (tumor-to-muscle ratio); format: in vivo, mice; details: injection dose increased from 0.03 to 0.125 mg, p>0.5270
Description: (§6) Tumor-bearing mice were divided into three groups for the dose acceleration study; they were injected with 0.03 mg, 0.06 mg, or 0.125 mg of the NIR-labeled retinoid agent that was equivalent to the non-labeled retinoid, respectively. The tumor-to-muscle ratio was calculated from the imaging data. The systemic toxicity was measured using control mice. The mice were treated with PBS (control), a low dose (0.1 mg/kg/week), or a dosage that was five times lower than that reported in published human clinical trials (0.6 mg/kg/week). The bodyweight was measured every other day, and the percentage gain in bodyweight was used as the toxicity indicator.
(§7) To test for a saturation effect of the target-specific biological agent, three groups of animal were injected with different doses of the retinoid agent. The tumor-to-muscle ratio was used to compare the dose response in the tumor. […] However, the higher dose was associated with a significant decrease in the gain of bodyweight (FIG. 7B).

[11] = Systemic toxicity by bodyweight gain; format: in vivo, mice
Description: as §6, §7

[12] = system: human colon, lung, nasal cancer, and neuroblastoma xenografts; experiment: In vivo NIR imaging of other xenografts; parameters: species or system athymic nude mice; details: across all four tumor xenografts
Description: as §1, §2
To confirm the findings in other cancer cell types, the RA agent was tested in human colon (FIG. 4A), lung (FIG. 4B), nasal (FIG. 4C) cancer, and neuroblastoma (FIG. 4 D) xenografts. […]

[13] = system: human colon cancer xenograft; experiment: Tumor-to-muscle and liver-to-tumor ratios over time; format: in vivo, athymic nude mice; details: for signal in the liver versus background/muscle level: 14 days post-injection, single 18.4 μg injection
Description: as §1
The NIR-labeled retinoid agent was intraveneously (i.v.) injected into the tumor-bearing mice at a dose of 10 nmol for imaging. […] System FX, a tandem (SPECT/CT) single photon emission computed tomography (SPECT) and computed tomography (CT) system and imaged with a positron emission tomography (PET) system.
[…] […] The imaging agent was initially concentrated in the liver after the injection, but it gradually redistributed from the liver to the tumor over time. […] The maximum TMR (2.7) was reached 6 days post-injection in some animals, after which it started to decrease.

[14] = system: CM319 osteosarcoma cells; experiment: Confocal microscopy cell binding/uptake; format: cell-based, human
Description: as §3, §4

[15] = 30 mg/day, stage I and II head and neck cancer patients; cited from earlier work

CC1(C)C(=CC=C2CCCC(C=CC3=[N+](CCCCCC(=O)[O-])c4ccc(S(=O)(=O)[O-])cc4C3(C)C)=C2Oc2ccc(S(=O)(=O)[O-])cc2)N(CCCCS(=O)(=O)[O-])c2ccc(S(=O)(=O)[O-])cc21.[Na+].[Na+].[Na+].[Na+] [IRDye800CW, reference compound]
optical signal in the animal ([1]; after 24 hours): completely undetectable
signal intensity (TBR), IRDye800CW group vs RA group ([1]; after 24 hours, P<0.0001): significantly lower
clearance from the body, time [1]: 24 h
clearance from the body, time ([1]; listed as free dye): ≤ 24 h
binding to cells (NIR signal, confocal image) [2]: no detectable signal
binding to cells (NIR signal, confocal image) [3]: no detectable signal
binding to cells (NIR signal, confocal image) [4]: no detectable signal
binding to cells (NIR signal, confocal image) [5]: no detectable signal
binding to cells (NIR signal, confocal image) [6]: no detectable signal
binding to cells (NIR signal, confocal image) [7]: no detectable signal
binding to cells (NIR signal, confocal image) [8]: no detectable signal

CC1=C(/C=C/C(C)=C/C=C/C(C)=C/C(=O)NCCCCCCNC(=O)CCCCCN2/C(=C/C=C3\CCCC(/C=C/C4=[N+](CCCCS(=O)(=O)O)c5ccc(S(=O)(=O)O)cc5C4(C)C)=C3Oc3ccc(S(=O)(=O)O)cc3)C(C)(C)c3cc(S(=O)(=O)O)ccc32)C(C)(C)CCC1 [compound 3, RA-HN(CH2)6NH—IRdye 800]
binding when incubated at 4° C. ([9]; 4° C.): minimum binding
signal intensity in cells incubated at 37° C. versus 4° C. or negative cells ([9]; 37° C. vs 4° C., statistically significant, listed as NIR-labeled retinoid agent): stronger; also recorded: higher signal intensity was observed at 37 °C than at 4 °C
localisation of retinoid signal in cells ([9]; 37° C., confocal, listed as NIR-labeled retinoid agent): not only detected in the cytoplasm but also in the nuclei; also recorded: localizes to the cell membrane and cytoplasm
signal intensity in the liver and tumor ([1]; 72 hours post-injection): high signal intensity
tumor-to-background ratio (TBR) ([1]; 72 hours post-injection, single animal): 2.76
signal intensity (TBR), IRDye800CW group vs RA group ([1]; within the first 24 hours, P=0.6088): no statistically significant difference
tumor-to-muscle ratio, dose response ([10]; listed as imaging agent): no statistically significant difference
tumor-to-muscle ratio, dose response ([10]; listed as retinoid agent): no significant difference
percentage of bodyweight gain vs untreated control and low dose group ([11]; high dose 0.6 mg/kg/week, p=0.0003 vs control, p=0.0001 vs low dose): significantly lower
percentage of bodyweight gain vs control group ([11]; low dose 0.1 mg/kg/week, p=0.0519): no differences
tumor-to-background ratio [12]: 2.15 to 2.74
liver-to-tumor ratio relative to tumor-to-muscle ratio ([13]; 1 day post-injection): almost twice as high
signal in the liver versus background/muscle level ([13]; listed as NIR-labeled retinoid agent): still higher than the background level
signal in the liver versus background/muscle level ([13]; listed as retinoid analog imaging agent): had not returned to the muscle level
time at which liver-to-tumor and tumor-to-muscle ratios intersected ([13]; post-injection): 3 days
maximum tumor-to-muscle ratio (TMR) ([13]; single injection 18.4 μg per 25 grams of bodyweight, some animals): 2.7
binding to cells (NIR signal, confocal image) [2]: bound
binding to cells (NIR signal, confocal image) [3]: bound
binding to cells (NIR signal, confocal image) [4]: bound
binding to cells (NIR signal, confocal image) [5]: bound
binding to cells (NIR signal, confocal image) [6]: bound
binding to cells (NIR signal, confocal image) [7]: bound
binding to cells (NIR signal, confocal image) [8]: bound
binding to cells [14]: strongly binds to all the tested human cancer cell lines except CM319 osteosarcoma cells

CC1=C(/C=C/C(C)=C/C=C/C(C)=C\C(=O)O)C(C)(C)CCC1 [retinoid, isotretinoin]
patients developing adverse effects [15]: 49.7%
